The test system of series [1] is HCV genotype 3a NS5A within the 1b-replicon. Nature of the series: Luciferase replicon assay, NS5A-intergenotypic stable cell line genotype 3a. In kind it is cell-based. Conditions: Hepatitis C virus, read-out: EC50 3a. From the text: (§1) The nucleotide sequences of the NS5A region of genotype 2a (GenBank Accession # AB047639), genotype 3a (GenBank Accession #D17763), and genotype 4a (GenBank Accession# DQ418788) were synthesized by an outside vendor. The NS5A region of each of these genotypes included the first 11 amino acids of the protease recognition sequence of genotype 1b, as well as the last 10 amino acids of genotype 1b. The NS5A gene cassettes were excised with site specific restriction endonucleases and ligated into a ZS11-luciferase genotype 1b backbone (backbone contains the genotype 1b NS3 protease, NS4a, NS4b, and NS5b coding regions) with similarly cut restriction enzyme sites. Thus, the newly constructed plasmid contains a genotype 2a-, 3a- or 4a-specific NS5A gene within the 1b-replicon.
(§2) These new intergenotypic plasmids were used to establish stable cell lines. RNA was generated from the NS5A intergenotypic plasmids and used in conjunction with a lipofectin reagent to transfect a cured Huh7 cell line. Transfected cells were selected for with G418. After selection has occurred the stable cell lines were propagated, tested for luciferase activity, and RT-PCR with genotype specific primers (either 1a, 2a, 3a, or 4a). Stable cell lines containing the intergenotypic replicon were then fully sequenced and analyzed for proper expression of NS3, NS5A and NS5B proteins.
(§3) Drug titration analysis was performed using the luciferase replicon assay described herein.
(§4) The HCV luciferase replicon assay measures the ability of a test compound to inhibit HCV replication in cell culture after 3 days of treatment in a human hepatoma cell line (Huh-7) bearing an HCV replicon containing a luciferase-neomycin phosphotransferase fusion gene. The inhibition of HCV replication was measured by quantification of luciferase protein expression. Briefly, Huh-7 cells containing either the HCV genotype 1a H77 strain or genotype 1b Con1 strain subgenomic luciferase replicon (H1a-luc or Zluc, respectively) were grown in DMEM containing glucose, L-glutamine and sodium pyruvate, 10% fetal bovine serum (FBS), 100 IU/mL penicillin, 100 μg/mL streptomycin, 2 mM GlutaMAX, non-essential amino acids and 0.25 (H1a-luc) or 0.5 (Zluc) mg/mL G418. GlutaMAX was obtained from Invitrogen, Corp.; all other media reagents were obtained from Mediatech, Inc. For dose-response testing, the cells were seeded in 96-well plates at 1×10^4 (H1a-luc) or 7.5×10^3 (Zluc) cells/well in a volume of 50 μL, and incubated at 37° C./5% CO2. Three hours after plating, 50 μL of ten 5-fold serial dilutions of compound were added, and cell cultures were incubated at 37° C./5% CO2 for 72 hours. In all cases, Huh-7 cells lacking the HCV replicon served as negative control. To assess luciferase expression, the media/compound was removed from the plates and ONE-glo Luciferase assay reagent (Promega) was added to each well. The assay plates were shaken for 3 minutes at room temperature and luciferase activity for each well was measured with a 1 sec read time on the Victor^3V multilabel counter using a 700 nm cut-off filter (Perkin Elmer). EC50 values were calculated from dose response curves from the resulting best-fit equations determined by Microsoft Excel and XLfit 4.1 software.

The test system of series [2] is HCV genotype 1b Con1 strain subgenomic luciferase replicon (Zluc). Nature of the series: Luciferase replicon assay, genotype 1b. The settings on record: Hepatitis C virus. The series is classed as cell-based. As to the method:
as §4
Background: In antiviral work, replicon cells carry a viral genome segment that copies itself.

The nature of the next series: in vitro. The series is classed as cell-based. Conditions: human; GS4.1 cells, cellular viability. As to the method:
For cytotoxicity evaluation, GS4.1 cells were treated with compounds as described above and cellular viability was monitored using the Cell Titer 96 AQeous One Solution Cell Proliferation Assay (Promega). CC50 values were determined from the % cytotoxicity versus concentration data with Tecan Magellan software as described above.

Series [3] concerns HCV Con1 subgenomic replicon (GS4.1 cells). The series can be described thus: HCV replicon assay (NS5A ELISA, 72 hrs). The series is classed as cell-based. Conditions: Hepatitis C virus. As to the method:
Huh-7 cells containing HCV Con1 subgenomic replicon (GS4.1 cells) were grown in Dulbecco's Modified Eagle Medium (DMEM) supplemented with 10% fetal bovine serum (FBS), 2 mM L-glutamine, 110 mg/L sodium pyruvate, 1× non-essential amino acids, 100 U/mL penicillin-streptomycin, and 0.5 mg/mL G418 (Invitrogen). For dose-response testing, the cells were seeded in 96-well plates at 7.5×10^3 cells/well in a volume of 50 μL, and incubated at 37° C./5% CO2. Three hours after plating, 50 μL often 2-fold serial dilutions of compounds (highest concentration, 75 μM) were added, and cell cultures were incubated at 37° C./5% CO2 in the presence of 0.5% DMSO. Alternatively, compounds were tested at a single concentration of 15 μM. In all cases, Huh-7 cells lacking the HCV replicon served as negative control. The cells were incubated in the presence of compounds for 72 hrs after which they were monitored for expression of the NS5A protein by enzyme-linked immunosorbent assay (ELISA). For this, the plates were then fixed for 1 min with acetone/methanol (1:1, v/v), washed twice with phosphate-buffered saline (PBS), 0.1% Tween 20, blocked for 1 hr at room temperature with TNE buffer containing 10% FBS and then incubated for 2 hr at 37° C. with the anti-NS5A mouse monoclonal antibody A-236 (ViroGen) diluted in the same buffer. After washing three times with PBS, 0.1% Tween 20, the cells were incubated 1 hr at 37° C. with anti-mouse immunoglobulin G-peroxidase conjugate in TNE, 10% FBS. After washing as described above, the reaction was developed with O-phenylenediamine (Zymed). The reaction was stopped after 30 min with 2 NH2SO4, and absorbance was read at 492 nm using Sunrise Tecan spectrophotometer. EC50 values were determined from the % inhibition versus concentration data using a sigmoidal non-linear regression analysis based on four parameters with Tecan Magellan software.

The next series relates to H1a-luc or Zluc cells. The series can be described thus: in vitro. The series is classed as cell-based, human. The settings on record: Table 1B, cellular viability. As to the method: For cytotoxicity evaluation, HPC cells were treated with compounds as described above in the absence of the genotype 2a virus and cellular viability was monitored using the Cell Titer 96 AQueous One Solution Cell Proliferation Assay (Promega). Plates were then read at 490 nm in a Victor^3V 1420 multilabel counter (Perkin Elmer) and CC50 concentrations were determined using Microsoft Excel and XLfit 4.1 software.
For cytotoxicity evaluation, H1a-luc or Zluc cells were treated with compounds as described above and cellular viability was monitored using the Cell Titer 96 AQueous One Solution Cell Proliferation Assay (Promega). Plates were then read at 490 nm in a Victor^3V 1420 multilabel counter (Perkin Elmer) and CC50 concentrations were determined using Microsoft Excel and XLfit 4.1 software.

Series [4] deals with HCV genotype 1a H77 strain subgenomic luciferase replicon (H1a-luc). Nature of the series: Luciferase replicon assay, genotype 1a. The series is classed as cell-based. Conditions: Hepatitis C virus, read-out: EC50 1a. As to the method:
as §3, §4

The test system of the next series is HCV genotype 2a. Nature of the series: Genotype 2a assay (NS5A-intergenotypic luciferase replicon / genotype 2a infectious virus assay). The series is classed as cell-based. The settings on record: Hepatitis C virus, read-out: EC50 2a.
Excerpt: as §1, §2, §3
The genotype 2a infectious virus assay measures the ability of a test compound to inhibit HCV replication in cell culture after 5 days of treatment at the time of HCV genotype 2a virus infection of a permissive human hepatoma cell line (HPC cells). The inhibition of HCV replication was measured by quantification of HCV core protein expression by an enzyme-linked immunosorbent assay (ELISA). Briefly, HPC cells were grown in DMEM containing glucose, L-glutamine and sodium pyruvate, 10% FBS, 100 IU/mL penicillin, 100 μg/mL streptomycin, 2 mM GlutaMAX, and non-essential amino acids. GlutaMAX was obtained from Invitrogen, Corp.; all other media reagents were obtained from Mediatech, Inc. For dose-response testing, ninety-six-well plates were seeded with HPC cells at a density of 2.5×10^3 cells/well in a volume of 50 μL, and incubated at 37° C./5% CO2. Three hours after plating, 50 μL of ten 5-fold serial dilutions of compound and 100 μL of genotype 2a virus were added, and cell cultures were incubated at 37° C./5% CO2. In all cases, mock infected HPC cells served as negative control. At 16 hours post treatment and infection, the virus inoculum was removed by aspiration. The cultures were treated at the same final concentrations of drug diluted in media and incubated for 4 additional days at 37° C./5% CO2. Subsequently, the core ELISA was performed as follows. The plates were fixed for 90 seconds with acetone/methanol (1:1, v/v), washed three times with KPL wash solution (KPL, Inc.), blocked for 1 hr at room temperature with TNE buffer containing 10% FBS and then incubated for 2 hr at 37° C. with the anti-HCV core mouse monoclonal antibody (Thermo Scientific) diluted in the same buffer. After washing three times with KPL wash solution, the cells were incubated for 1 hr at 37° C. with an anti-mouse immunoglobulin G-peroxidase conjugate in TNE/10% FBS. After washing as described above, the reaction was developed with O-phenylenediamine (Invitrogen). The reaction was stopped after 30 min with 2 NH2SO4, and absorbance was read at 490 nm in a Victor^3V 1420 multilabel counter (Perkin Elmer) and EC50 concentrations were determined using Microsoft Excel and XLfit 4.1 software.
The HCV luciferase replicon assay measures the ability of a test compound to inhibit HCV replication in cell culture after 3 days of treatment in a human hepatoma cell line (Huh-7) bearing an HCV replicon containing a luciferase-neomycin phosphotransferase fusion gene. […]

The test system of series [5] is HCV genotype 4a NS5A within the 1b-replicon. The series can be described thus: Luciferase replicon assay, NS5A-intergenotypic stable cell line genotype 4a. In kind it is cell-based. Conditions: Hepatitis C virus, read-out: EC50 4a.
Excerpt: as §1, §2, §3, §4

Broadly, the EC50 is the concentration giving half of the maximal effect. One may read the CC50 as the concentration giving 50% cytotoxicity.

On to `COC(=O)N[C@H](C(=O)N1CCC[C@H]1c1ncc(-c2ccc(-c3cc4sc(-c5cnc([C@@H]6CCCN6C(=O)[C@@H](NC(=O)OC)C(C)C)[nH]5)cc4s3)cc2)[nH]1)C(C)C` [Compound A126, [(S)-1-((S)-2-{5-[4-(5-{2-[(S)-1-((S)-2-Methoxycarbonylamino-3-methyl-butyryl)-pyrrolidin-2-yl]-3H-imidazol-4-yl}-thieno[3,2-b]thiophen-2-yl)-phenyl]-1H-imidazol-2-yl}-pyrrolidine-1-carbonyl)-2-methyl-propyl]-carbamic acid methyl ester], for which the EC50 in series [1] is 1 to 10 nM; in series [2], < 0.1 nM; in series [3] it was < 1 nM; in series [4], < 0.1 nM. In addition, the cytotoxic concentration (CC50) in “in vitro” and in the series with H1a-luc or Zluc cells was > 75000 nM throughout.
With `COC(=O)N[C@H](C(=O)N1CCCC1c1nc(-c2cc3sc(-c4ccc(-c5cnc([C@@H]6CCCN6C(=O)[C@@H](c6ccccc6)N6CCCCC6)[nH]5)cc4)cc3o2)c[nH]1)C(C)C` (stereo partly shown) [Compound A212], the EC50 in series [2] and in series [4] was < 0.1 nM throughout. The same compound came in with a CC50 with H1a-luc or Zluc cells of 10000 to 75000 nM.
Consider `COC(=O)N[C@H](C(=O)N1CCC[C@H]1c1ncc(-c2csc3c(-c4ccc5[nH]c([C@@H]6CCCN6C(=O)[C@@H](NC(=O)OC)C(C)C)nc5c4)csc23)[nH]1)C(C)C` [Compound A173, ((S)-1-{(S)-2-[6-(6-{(S)-2-[1-((S)-2-methoxycarbonylamino-3-methyl-butyryl)-pyrrolidin-2-yl]-1H-imidazol-4-yl}-thieno[3,2-b]thiophen-3-yl)-1H-benzoimidazol-2-yl]-pyrrolidine-1-carbonyl}-2-methyl-propyl)-carbamic acid methyl ester], for which the EC50 is 1 to 10 nM in series [1]; 1 to 10 nM in the series on HCV genotype 2a; < 0.1 nM in series [2]; 10 to 100 nM in series [4]; 1 to 10 nM in series [5]. In addition, the CC50 in the series on H1a-luc or Zluc cells fell in the range of 10000 to 75000 nM.
Consider `COC(=O)N[C@H](C(=O)N1CCC[C@H]1c1ncc(-c2ccc(-c3csc4c(-c5cnc([C@@H]6CCCN6C(=O)[C@H](NC(=O)OC)c6ccccc6)[nH]5)csc34)cc2)[nH]1)C(C)C` [Compound A200, [(S)-1-((S)-2-{4-[4-(6-{2-[(S)-1-((R)-2-methoxycarbonylamino-2-phenyl-acetyl)-pyrrolidin-2-yl]-3H-imidazol-4-yl}-thieno[3,2-b]thiophen-3-yl)-phenyl]-1H-imidazol-2-yl}-pyrrolidine-1-carbonyl)-2-methyl-propyl]-carbamic acid methyl ester], for which the EC50 in series [2] is < 0.1 nM; in series [4], 0.1 to 1 nM. Also, in the series on H1a-luc or Zluc cells, the half-maximal cytotoxic concentration (CC50) is > 75000 nM.
For the compound `COC(=O)N[C@H](C(=O)N1CCC[C@H]1c1ncc(-c2ccc(-c3csc4c(-c5ccc6[nH]c([C@@H]7CCCN7C(=O)[C@@H](NC(=O)OC)C(C)C)nc6c5)csc34)cc2)[nH]1)C(C)C` [Compound A171, [(S)-1-((S)-2-{4-[4-(6-{2-[(S)-1-((S)-2-methoxycarbonylamino-3-methyl-butyryl)-pyrrolidin-2-yl]-3H-benzoimidazol-5-yl}-thieno[3,2-b]thiophen-3-yl)-phenyl]-1H-imidazol-2-yl}-pyrrolidine-1-carbonyl)-2-methyl-propyl]-carbamic acid methyl ester], the EC50 in series [1] is 1 to 10 nM; in series [2] it was < 0.1 nM; in series [4] it was < 0.1 nM. The CC50 in the series with H1a-luc or Zluc cells was > 75000 nM.
In the case of `COC(=O)N[C@H](C(=O)N1CCC[C@H]1c1nc2ccc(-c3cc4sc(-c5ccc(-c6c[nH]c([C@@H]7CCCN7C(=O)[C@H](NC(=O)OC)c7ccccc7)n6)cc5)cc4s3)cc2[nH]1)C(C)C` [Compound A215, [(S)-1-((S)-2-{6-[5-(4-{(S)-2-[1-((R)-2-methoxycarbonylamino-2-phenyl-acetyl)-pyrrolidin-2-yl]-1H-imidazol-4-yl}-phenyl)-thieno[3,2-b]thiophen-2-yl)-1H-benzoimidazol-2-yl}-pyrrolidine-1-carbonyl)-2-methyl-propyl]-carbamic acid methyl ester], the EC50 in series [2] and in series [4] was < 0.1 nM throughout. The CC50 in the series with H1a-luc or Zluc cells was > 75000 nM.

The values above are taken from patent US20120252721A1 (priority 2011, published 2012).
